Experimental data: ChEMBL document CHEMBL1781891, “An efficient preparation of N-alkyl-2-benzazepine derivatives and investigation of their biological activity” (Bioorg Med Chem Lett, 2009)
The source made the active and inactive calls. The calls are words filed in the database; no cut-off is given here.

Test system: HaCaT
Test: Induction of cell migration in human HaCaT cells at 30 uM by in vitro wound healing assay
Assay type: functional, cell-based

SMILES | Activity
COc1ccc2c(c1)CN(C)C(=O)C(C)C2 (stereo not drawn) | Active
COc1ccc2c(c1)CN(Cc1ccccc1)C(=O)C(C)C2 (stereo not drawn) | inactive
CCCCCN1Cc2cc(OC)ccc2CC(C)C1=O (stereo not drawn) | inactive
CCN1Cc2cc(OC)ccc2CC(C)C1=O (stereo not drawn) | Active
COc1ccc2c(c1)CN(C(C)C)C(=O)C(C)C2 (stereo not drawn) | inactive
CCCCN1Cc2cc(OC)ccc2CC(C)C1=O (stereo not drawn) | inactive
CCCN1Cc2cc(OC)ccc2CC(C)C1=O (stereo not drawn) | inactive
COc1ccc2c(c1)CNC(=O)C(C)C2 (stereo not drawn) | Active
